Assay: xn = mol fraction of the nth substance listed

CCCCCC[n+]1ccn(C)c1.O=[N+]([O-])[O-] + CC(C)O
viscosity [mPa·s], 100 kPa
Conditions | 293.15 K | 298.15 K | 303.15 K | 308.15 K | 313.15 K | 318.15 K | 323.15 K
x1 = 0.0817 | 6.79 | 5 | 3.85 | 2.97 | 2.39 | 2.01 | 1.65
x1 = 0.1594 | 16 | 11.18 | 7.97 | 5.99 | 4.67 | 3.68 | 2.88
x1 = 0.2402 | 32 | 23 | 17 | 12.69 | 9.5 | 7.25 | 5.63
x1 = 0.3493 | 66 | 47.7 | 34 | 26.9 | 21 | 16.7 | 12.75
x1 = 0.4408 | 111 | 79.5 | 55.4 | 43.2 | 34.4 | 27.2 | 21.3
x1 = 0.5609 | 187 | 136.6 | 91 | 70 | 55.8 | 43.5 | 34
x1 = 0.6502 | 266 | 193 | 122.4 | 94.1 | 74.7 | 58.3 | 44.5
x1 = 0.7417 | 363 | 265 | 164.3 | 123.7 | 96 | 75.4 | 58
x1 = 0.8518 | 505 | 372 | 232 | 168.8 | 128.2 | 101.2 | 78.6
x1 = 0.9396 | 664 | 467 | 306 | 218 | 160.5 | 124 | 96.7
x1 = 1 | 804 | 545 | 369 | 258 | 186 | 140.2 | 110.9

CCCC[n+]1ccn(C)c1.O=[N+]([O-])[O-] + CC(C)O
100 kPa
Conditions | viscosity [mPa·s]
293.15 K, x1 = 0.1596 | 6.9
293.15 K, x1 = 0.6506 | 53
293.15 K, x1 = 0.7413 | 70
298.15 K, x1 = 0.1596 | 6
298.15 K, x1 = 0.2405 | 9.3
298.15 K, x1 = 0.7413 | 56
298.15 K, x1 = 0.8515 | 82
303.15 K, x1 = 0.1596 | 5.2
303.15 K, x1 = 0.8515 | 63
303.15 K, x1 = 0.9396 | 90
308.15 K, x1 = 0.2405 | 6.6
308.15 K, x1 = 0.8515 | 51
308.15 K, x1 = 0.9396 | 72
308.15 K, x1 = 1 | 97
313.15 K, x1 = 0.3495 | 9
313.15 K, x1 = 0.9396 | 59
313.15 K, x1 = 1 | 75
318.15 K, x1 = 0.2405 | 5.2
318.15 K, x1 = 0.3495 | 7.9
318.15 K, x1 = 1 | 56
323.15 K, x1 = 0.3495 | 7.2

CC[n+]1ccn(C)c1.F[P-](F)(F)(F)(F)F + CC(C)[C@H](N)C(=O)O + O
100 kPa
Conditions | electrical conductivity, 298.15 K [S/m] | electrical conductivity, 303.15 K [S/m] | electrical conductivity, 308.15 K [S/m] | viscosity, 298.15 K [mPa·s] | viscosity, 303.15 K [mPa·s] | viscosity, 308.15 K [mPa·s]
x2 = 0.0001802, x1 = 1.802e-05 | 0.0115 | 0.0132 | 0.0158 | 0.924 | 0.855 | 0.783
x2 = 0.0001803, x1 = 5.405e-05 | 0.0309 | 0.0338 | 0.0369 | 0.939 | 0.861 | 0.788
x2 = 0.0001804, x1 = 9.008e-05 | 0.0452 | 0.0507 | 0.0552 | 0.954 | 0.865 | 0.792
x2 = 0.0004522, x1 = 1.801e-05 | 0.0121 | 0.0136 | 0.0156 | 0.93 | 0.862 | 0.79
x2 = 0.0004524, x1 = 5.403e-05 | 0.0301 | 0.0329 | 0.0366 | 0.946 | 0.868 | 0.795
x2 = 0.0004526, x1 = 9.005e-05 | 0.046 | 0.0507 | 0.0551 | 0.963 | 0.876 | 0.801
x2 = 0.0007258, x1 = 1.801e-05 | 0.0124 | 0.0141 | 0.016 | 0.936 | 0.869 | 0.797
x2 = 0.0007262, x1 = 5.402e-05 | 0.0308 | 0.0336 | 0.0361 | 0.953 | 0.875 | 0.802
x2 = 0.0007265, x1 = 9.003e-05 | 0.0494 | 0.0548 | 0.0593 | 0.97 | 0.884 | 0.808
x2 = 0.0009976, x1 = 1.8e-05 | 0.0136 | 0.015 | 0.0177 | 0.942 | 0.876 | 0.803
x2 = 0.000998, x1 = 5.4e-05 | 0.0304 | 0.0333 | 0.0354 | 0.96 | 0.883 | 0.811
x2 = 0.0009985, x1 = 9e-05 | 0.0457 | 0.051 | 0.0553 | 0.979 | 0.893 | 0.818
x2 = 0.001273, x1 = 1.8e-05 | 0.0147 | 0.0167 | 0.0199 | 0.948 | 0.882 | 0.811
x2 = 0.001273, x1 = 5.399e-05 | 0.0323 | 0.0341 | 0.0377 | 0.969 | 0.89 | 0.819
x2 = 0.001274, x1 = 8.998e-05 | 0.0487 | 0.0538 | 0.0594 | 0.988 | 0.899 | 0.826
x2 = 0.001546, x1 = 1.799e-05 | 0.0161 | 0.0182 | 0.0218 | 0.954 | 0.888 | 0.818
x2 = 0.001547, x1 = 5.397e-05 | 0.0327 | 0.0343 | 0.0383 | 0.976 | 0.897 | 0.827
x2 = 0.001547, x1 = 8.995e-05 | 0.0455 | 0.0512 | 0.0549 | 0.996 | 0.908 | 0.833

CCCCCC[n+]1ccn(C)c1.O=[N+]([O-])[O-] + CCC(C)O
viscosity [mPa·s], 100 kPa
Conditions | 293.15 K | 298.15 K | 303.15 K | 308.15 K | 313.15 K | 318.15 K | 323.15 K
x1 = 0.0819 | 7.63 | 5.55 | 4.2 | 3.3 | 2.59 | 2.14 | 1.79
x1 = 0.1591 | 14.93 | 10.31 | 7.2 | 5.2 | 3.92 | 3.18 | 2.52
x1 = 0.2414 | 28.5 | 19.3 | 13.16 | 9.1 | 6.75 | 5.3 | 3.9
x1 = 0.3517 | 54.2 | 37.9 | 27.6 | 18 | 13.16 | 10.35 | 7.8
x1 = 0.4412 | 87.8 | 63.7 | 46.7 | 30.6 | 21.5 | 16.77 | 12.8
x1 = 0.5591 | 156.2 | 117.1 | 84.5 | 56.4 | 38 | 29.4 | 23
x1 = 0.6518 | 227 | 172.4 | 117.1 | 81.3 | 58.7 | 43 | 33.6
x1 = 0.7392 | 322 | 238 | 158.7 | 113.3 | 84.5 | 60.9 | 47.3
x1 = 0.8516 | 475 | 342 | 230 | 168.2 | 124.1 | 91.6 | 71.1
x1 = 0.9395 | 641 | 451 | 304 | 218 | 159.2 | 119.8 | 94.4
x1 = 1 | 804 | 545 | 369 | 258 | 186 | 140.2 | 110.9

CCCC[n+]1ccn(C)c1.O=[N+]([O-])[O-] + CCC(C)O
100 kPa
Conditions | viscosity [mPa·s]
293.15 K, x1 = 0.0813 | 5.4
293.15 K, x1 = 0.1595 | 7.3
298.15 K, x1 = 0.1595 | 6.1
298.15 K, x1 = 0.2402 | 8.4
298.15 K, x1 = 0.7398 | 52
298.15 K, x1 = 0.8502 | 79
303.15 K, x1 = 0.1595 | 5.3
303.15 K, x1 = 0.2402 | 7.2
303.15 K, x1 = 0.8502 | 62
308.15 K, x1 = 0.2402 | 6.3
308.15 K, x1 = 0.35 | 9.4
308.15 K, x1 = 0.9399 | 71
308.15 K, x1 = 1 | 97
313.15 K, x1 = 0.2402 | 5.5
313.15 K, x1 = 0.35 | 8.2
313.15 K, x1 = 0.9399 | 57
313.15 K, x1 = 1 | 75
318.15 K, x1 = 0.35 | 7.2
318.15 K, x1 = 0.4403 | 9.7
318.15 K, x1 = 1 | 56
323.15 K, x1 = 0.35 | 6.3
323.15 K, x1 = 0.4403 | 8.5

CCOS(=O)(=O)[O-].CC[n+]1ccn(C)c1 + CCC(C)O
101 kPa
Conditions | viscosity [mPa·s]
298.15 K, x1 = 0.2027 | 6.91
298.15 K, x1 = 0.6944 | 39.6
298.15 K, x1 = 0.7957 | 54.2
303.15 K, x1 = 0.2027 | 6.81
303.15 K, x1 = 0.4906 | 17.37
303.15 K, x1 = 0.8916 | 57.3
308.15 K, x1 = 0.3936 | 9.98
308.15 K, x1 = 0.8916 | 46.8
313.15 K, x1 = 0.2027 | 4.59
313.15 K, x1 = 0.3936 | 9.48
313.15 K, x1 = 0.5916 | 17.67
313.15 K, x1 = 1 | 49.4
318.15 K, x1 = 0.2027 | 4.03
323.15 K, x1 = 0.2937 | 5

CCCCCC[n+]1ccn(C)c1.O=[N+]([O-])[O-] + CCCC(C)O
100 kPa
Conditions | viscosity [mPa·s]
293.15 K, x1 = 0.2408 | 23.7
293.15 K, x1 = 0.7401 | 258
293.15 K, x1 = 0.8508 | 417
298.15 K, x1 = 0.1609 | 10.16
303.15 K, x1 = 0.0814 | 4.67
303.15 K, x1 = 0.7401 | 113.5
308.15 K, x1 = 0.7401 | 75.3
313.15 K, x1 = 0.0814 | 2.69
323.15 K, x1 = 0.0814 | 1.71
323.15 K, x1 = 0.6509 | 16.03
323.15 K, x1 = 1 | 110.9

CCCC[n+]1ccn(C)c1.O=[N+]([O-])[O-] + CCCC(C)O
100 kPa
Conditions | viscosity [mPa·s]
293.15 K, x1 = 0.8501 | 83
303.15 K, x1 = 0.3499 | 6.6
318.15 K, x1 = 0.4399 | 5.9
323.15 K, x1 = 0.5604 | 7.1
323.15 K, x1 = 0.6505 | 9.7

CCCC[N+](CCCC)(CCCC)CCCC.O=S(=O)([O-])O + CCCCCCCCCO
101.3 kPa, x1 = 0.2
Conditions | electrical conductivity [S/m] | viscosity [mPa·s]
293.15 K | 0.00273 | 164.6
298.15 K | 0.00375 | –
303.15 K | 0.00499 | –
308.15 K | 0.00648 | 84.2
313.15 K | 0.0082 | 65.8

From the CheMixHub ionic liquid set
